Experimental data as given in US11759477B2, “Compositions of nitrates and methods of use thereof” (Heartbeet Ltd., priority 2007, dated 2023).

Assays:
[1] = type: in vivo, human
[2] = Blood pressure at rest after dietary sodium nitrate supplementation; type: in vivo, human; settings: 0.1 mmol/kg body weight/day oral, 3 days, mean±SD, n=9
Procedure: Subjects: Nine healthy, well trained (VO2peak 55±3.7 ml×kg-1×min-1), males (28±6 years) volunteered for the study. All subjects were trained cyclists or triathletes and well accustomed to the testing procedure. It was chosen to use well-trained subjects to avoid training effects from the tests such as enhanced VO2peak or better mechanical efficiency during submaximal exercise. The protocol was approved by the regional ethics committee in Stockholm and all subjects gave their written consent prior to participation.
Dietary supplementation with nitrate: The aim with the present study was to investigate the effects of two distinct dietary patterns, one with higher, and one with lower than normal nitrate intake. […] During two three-day periods, separated by a washout interval of ten days, the subjects were instructed to avoid all foods with moderate or high nitrate content (all vegetables, all cured meats, strawberries, grapes, and tea). In addition, they were told to restrain from alcohol and tobacco products. Otherwise they were free to eat any food they liked during the three days of restricted diet. The subjects were randomized to start with either ingestion of 0.1 mmol sodium nitrate/kg body weight/day dissolved in water or an equal amount of sodium chloride (placebo). The daily dose was divided and ingested three times daily. The different solutions could not be distinguished by taste or appearance. The daily nitrate dose corresponded to the amount normally found in 150-250 gram of a nitrate-rich vegetable such as spinach, lettuce or beetroot. The last dose of nitrate or placebo was ingested in the morning on the day of measurement (see the main tests below). The order between the nitrate supplementation period (NIT) and the placebo period (CON) was balanced.
The main tests: The subjects refrained from heavy exercise three days prior to the main tests and avoided all exercise the day before the tests. They were also told to eat their last light meal at least 3 hours before the start of the tests. […]

[3] = Oral Glucose Tolerance Test after nitrate pre-treatment (n=3); type: in vivo, human; settings: 75 g glucose, 60 min after nitrate 1 mmol/kg body weight NaNO3, n=3; placebo 8.2
Procedure: FIGS. 7a-7c consist of three graphs, showing changes in blood glucose levels after an oral challenge with glucose for three test subjects in a double-blind, placebo-controlled cross-over study (FIGS. 7a, 7b and 7c). A standard oral glucose tolerance test was performed. The subjects (healthy non-smoking volunteers) had their diet supplemented for 3 days with either sodium chloride (placebo) or sodium nitrate (Nitrate) at a dose of 0.1 mmol/kg body weight/day.
The increase in plasma glucose after a standard Oral Glucose Tolerance Test (75 g glucose in 250 ml water) is lower when measured after nitrate pre-treatment (1 mmol/kg body weight NaNO3) compared to placebo (NaCl). The study was performed with three healthy test subjects in a double-blind study. Glucose ingestion started 60 min after the nitrate ingestion. Blood glucose levels were measured during the 120 min period after the glucose load (n=3). At 30 min mean plasma glucose was 8.2 mmol/l with placebo and in the same subjects 6.5 mmol/l after nitrate supplementation.

[4] = Oral Glucose Tolerance Test after three-day sodium nitrate supplementation (n=8); type: in vivo, human; settings: 75 g glucose, 0.1 mmol/kg body weight/day for three days
Procedure: FIG. 8 is a graph showing changes in blood glucose levels after an oral challenge with glucose in 8 additional subjects in a double-blind, placebo-controlled cross-over study. A standard oral glucose tolerance test was performed. The subjects (healthy non-smoking volunteers) had their diet supplemented for 3 days with either sodium chloride (PLACEBO) or sodium nitrate (NITRATE) at a dose of 0.1 mmol/kg/day. Data are presented as mean±SEM.
The lower increase in plasma glucose after nitrate pre-treatment was verified in a further study wherein a standard Oral Glucos Tolerance Test (75 g glucose) was performed in 8 healthy non-smoking subjects after a three-day supplementation with either sodium chloride or sodium nitrate at equal molar amounts (0.1 mmol/kg body weight/day). […] Blood glucose levels were measured at two time points before (−10 and 0 min) and at 15, 30, 45, 60, 75, 90, 105 and 120 min after glucose intake (n=8). At the occasion when the subjects had taken nitrate, the area under the curve for blood glucose was smaller compared to when they had ingested placebo.

[5] = Plasma nitrite after intraperitoneal nitrate in wild type, germ free and eNOS knockout mice; type: in vivo; settings: 10 mg/kg ip, 1 hour later
Procedure: Three different strains of mice—wild type (n=5 placebo, n=5 nitrate), germ free (n=5 placebo, n=5 nitrate) and eNOS knockout mice (n=2 placebo, n=3 nitrate), were given an intra peritoneal injection of 10 mg/kg body weight nitrate or placebo (NaCl) and plasma level of nitrite measured 1 hour later.

[6] = Post-ischemic abdominal aortic blood flow after nitrate infusion; type: in vivo; settings: rats, 10 mg/kg iv bolus + 3 mg/kg/h
Procedure: Rats received an intravenous bolus dose of 10 mg/kg nitrate (NaNO3, n=4) or placebo (NaCl, n=4)) diluted in PBS (pH 7.4) followed by continuous infusion of 3 mg/kg body weight/h. An hour after the addition of nitrate (open boxes) or placebo (filled circles), L-NAME (50 mg/kg) was given, and 10 minutes later, a supra renal clamping of the abdominal aorta was performed. After 30 minutes of ischemia the clamp was removed and the abdominal aortic blood flow was monitored during 60 minutes.

[7] = not given; remark: listed apart in the source
[8] = remark: listed apart in the source
Procedure: FIG. 2 is a graph showing changes in oxygen consumption (VO2) following iv infusion of sodium nitrite in increasing doses. Nitrite was infused over a 10 min period in non-smoking healthy male volunteers (30-70 years).
The present inventors have been studying the effects of nitrate and nitrite on various physiological functions including blood pressure, glucose metabolism and energy expenditure in vivo. In the examples below, unless otherwise noted, nitrate was administered perorally and nitrite was administered intravenously (iv). Oxygen consumption was measured using indirect calorimetry.
(§1) Prior to the test the subjects had been on a diet low in nitrate for one day and had been fasting for at least 8 h.

[9] = clinical
Procedure: as §1

[10] = anesthetized rats, 10 mg/kg bolus NaNO3

O=[N+]([O-])[O-].[Na+] [sodium nitrate]
Average lowering of VO2 vs CON over the 4 submaximal work rates ([1]; 45-80% VO2peak): 0.15 L/min | VE, VE/VO2 or respiratory exchange ratio (RER), NIT vs CON ([1]; any of the submaximal work rates): No significant differences | Rating of perceived exertion (Borg RPE-scale), NIT vs CON ([1]; any work load (submax or max)): no difference | Gross efficiency (GE) ([1]; average, p=0.02 vs CON): 21.1% | Delta efficiency (DE) ([1]; four lowest work rates, linear regression, p=0.04 vs CON): 22.9±1.9% | [Hla] (plasma lactate), NIT vs CON ([1]; in vivo): No significant differences | VO2peak ([1]; maximal work, no significant difference, p=0.29): 4.49 ± 0.44 L/min | Maximal work rate ([1]; maximal work, p=0.35): 360.6±32.8 watt | VEmax ([1]; maximal work, p=0.5): 182 ± 21.4 L/min | HRmax ([1]; maximal work, p=0.94): 189.8±7.0 beats×min-1 | Heart rate (HR), NIT vs CON ([1]; submaximal work): no difference | VO2 during the four work rates corresponding to 45-80% VO2peak, vs placebo period ([1]; submaximal work): significantly lower | VO2 at 80% of VO2peak ([1]; submaximal work, 0.1 mmol/kg/day oral, 3 days, p=0.003 vs CON): 3.44 ± 0.31 L/min | Oxygen pulse ([1]; submaximal work, p=0.08 vs CON): 20.3±1.9 ml×beat-1 | Average resting systolic blood pressure [2]: 112±8 mmHg | Resting diastolic blood pressure [2]: 68±5.5 mmHg | Average resting systolic blood pressure ([2]; listed as NIT): 120+/−5.9 mmHg | Mean plasma glucose at 30 min [3]: 6.5 mmol/L | Area under the curve for blood glucose, vs placebo [4]: smaller | Nitrate-induced increase in plasma nitrite across wild type, germ free and eNOS knockout mice [5]: equal | Post-ischemic blood flow in early (0-10 minutes) and late (10-60 minutes) phase, vs placebo [6]: higher blood flow | Abdominal aortic blood flow after 60 min of reperfusion ([6]; L-NAME, 30 min ischemia, control rats 20% of pre-ischemic values): ~75 % of control values | Plasma nitrate levels immediately after the maximal work test (0.1 mmol/kg/day oral, 3 days, after maximal work test): 175 ± 61 µM | Plasma levels of nitrate at rest (0.1 mmol/kg/day oral, 3 days, at rest): 182000 ± 55000 nM | Decrease in nitrite concentrations during exercise, vs CON (compared with placebo period): more pronounced | Plasma nitrite levels at rest (in vivo, po): 226 ± 87 nM | Plasma nitrite levels immediately after the maximal work test (in vivo, po): 137 ± 48 nM | Increase in c-GMP concentrations after the maximal work as compared to rest, vs CON (p=0.08): tended to be higher | Change of plasma nitrate during exercise (p=0.8): did not change | Concentration of plasma nitrate after infusion [7, 10]: increases dramatically | Plasma nitrite concentrations after infusion [7, 10]: increased | Increase in plasma nitrite, nitrate only vs nitrate+allopurinol ([7]; rats, p<0.05): significantly greater

O=NO [sodium nitrite]
Reduction of resting energy expenditure ([8]; after 10 min of iv infusion, n=4, major drop at 10 nmoles/kg body weight/min): 10-25% | Effect on energy expenditure / oxygen consumption ([8]; iv 1 nmol/kg body weight/min, 10 min observation period): no obvious effects | Oxygen consumption compared to the 10 nmol dose ([8]; iv 100 nmol/kg body weight/min): no further decrease in oxygen consumption | Methemoglobin after infusion of nitrite ([9]; basal 1.1-1.3 mmol/l, did not change significantly): 1.1 to 1.4 mmol/L | concentration at 10 min ([9]; human, plasma, iv, 10 nmol/kg body weight/min): 370 to 480 nM
